Source: patent US20250228865A1, “COMPOUNDS FOR ENHANCING READ THROUGH OF GENES CONTAINING PREMATURE TERMINATION CODONS AND METHODS FOR MAKING AND USING THE SAME” (Sanofi US Services Inc., priority 2022, published 2025)
Values joined by “and” are separate entries in the source; they are usually repeats but may differ in a detail not shown here. Equal values may be shown once.

Key:
[1] = test system: CFTR G542X; test: Functional CFTR channel activity, TECC-24 electrophysiology, 16HBE cells (CFTR G542X readthrough); type: cell-based, human
Experimental: (§1) 16HBE human bronchial epithelial cells were seeded onto Transwell 24-well filter inserts coated with human collagen type IV. Cells were seeded 7 days prior to functional testing at a density of 1.7×10^5 cells onto the “apical” chamber filter of the Transwell insert. Cells were grown as submerged cultures (200 μL apical/700 μL basolateral) in Minimal Essential Medium (MEM) containing 10% qualified Fetal Bovine Serum and 1% Penicillin/Streptomycin and incubated at 37° C. and 5% CO2. Growth media on cells was replenished with fresh media every 1-3 days prior to test agent treatment day. After 7 days in culture, the CFTR-mediated chloride (Cl^−) equivalent current (Ieq) of the 16HBE cells was recorded, which may typically form electrically tight epithelia with a transepithelial resistance (Rt) of 2000-6000 Ω·cm2 as described below. Forty-eight hours prior to electrophysiological measurements, fresh growth media containing the test agents was applied to both chambers separating filter bound epithelial monolayer.
(§2) On the day of electrophysiology studies, electrodes of a “Multi-(24-channel) transepithelial current clamp amplifier” (MTECC-24 (TECC-24 for short), EP Devices, Belgium) were soaked in an assay buffer (see below for composition) for at least 2 hours using 24-well Transwell plates without inserts. Cell culture media was replaced in the Transwell assay plates with assay buffer (see below) and the plates were mounted onto a custom-built automated robotic assay platform (Yamaha RCX240S controller) with heated plate holders set at 37° C. for 60 min. After equilibration, transepithelial potential difference (PD) and resistance (Rt) was monitoredat ˜5 min intervals using the TECC-24 transepithelial current clamp. Electrode potential differences were monitored for each pair of Ag/AgCl voltage electrodes by taking voltage measurements from a control (“blank”) plate with matching buffer solutions and 16HBE cells that were not treated with any test agent. PD values for each electrode pair were subtracted from the blank plate from that of the test plates at each time point. Ieq was calculated from the corrected PD values and Rt using Ohm's law. Ieq values were slope corrected to account for measurement drift over time using the equation: Slope corrected value=calculated Ieq−((time x slope)+y-intercept) with the slope and y-intercept calculated from the data points captured during the initial baseline period and following addition of the CFTR inhibitor.
(§3) The equivalent current (Ieq) traces associated with CFTR channel activation were plotted as baseline subtracted mean±standard deviation from 3-4 separate wells on the 24-well Transwell (n=3-4). There are 4 recording periods, with the first set of data points recorded baseline Ieq currents prior to sequential activation of available CFTR channels with forskolin (10 μM) and then in combination with potentiator VX-770/ivacaftor (1 μM). Recorded the last set of data points in the presence of CFTR inhibitor CFTRinh-172 (20 μM) to confirm that currents are mediated via activation of CFTR channels. The test agents and control/reference compounds were pre-diluted to 10-fold concentrations in assay buffer and added manually using a multi-channel pipette to both the basolateral and apical side of the membrane (test plates only). Employed CFTR-mediated changes in Ieq, (i.e. forskolin/VX-770 activated currents) to measure functional CFTR surface expression or treatment-related functional rescue of mutant CFTR.
(§4) The magnitude of test agent mediated enhancement of functional CFTR currents was calculated by comparing forskolin/VX-770 stimulated Ieq relative to baseline/CFTRinh-172 Ieq following 48 hour pretreatment with test agent(s) and normalizing to the forskolin/VX-770 stimulated Ieq determined following 48 hour pretreatment with a maximally effective concentration a reference control aminoglycoside agent (typically 110 μM G418). […]

[2] = test system: CFTR R1162X; test: Functional CFTR channel activity, TECC-24 electrophysiology, 16HBE cells (CFTR R1162X readthrough); type: cell-based, human
Experimental: as §1, §2, §3, §4

[3] = test system: recombinant human CFTR carrying the premature stop codon (PTC) mutation G542X; test: CFTR-PTC mutant translation readthrough, Nanoluc tagged CFTR luminescence (G542X cell line); type: cell-based; details: 10 μM G418 alone; 48 hours; cell line (G542X or R1162X) not specified
Summary of the method: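 Readthrough is the 48 h compound-induced luminescence increase scaled to that of maximal G418 (125-250 μM). Compounds run from 50 μM final in 2-fold steps, ±10 μM G418, on 16HBE lines carrying Nanoluc-tagged CFTR G542X (extracellular loop 4 tag) or R1162X (C-terminal tag), with 3 μM VX-809 present.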

[4] = RTM 1 uM, no eRF3 modulator, ELX-02 100 uM
[5] = RTM conc. —, eRF3 modulator (CC-90009) 1 uM, ELX-02 100 uM
[6] = RTM 5 uM, eRF3 modulator (CC-90009) 10 uM, G418 10 uM
[7] = RTM 1 uM, eRF3 modulator (CC-90009) 1 uM, ELX-02 100 uM
[8] = no RTM, eRF3 modulator (CC-90009) 1 uM, G418 10 uM
[9] = no RTM, eRF3 modulator (CC-90009) 10 uM, G418 10 uM
[10] = no RTM, eRF3 modulator (CC-90009) 1 uM, Paramomycin 2000 uM

Cc1cccc(C(F)(F)F)c1COc1ccc(-c2nc(CO)n[nH]2)cc1 [drawing 828]
Currents (% of 110 μM G418 (Max effect)) [1, 4]: 109 % of 110 μM G418 (Max effect)

OCc1ccn(-c2ncc(OCc3c(Cl)cccc3Cl)cn2)n1 [drawing 826]
Currents (% of 110 μM G418 (Max effect)) [1, 5]: 83 % of 110 μM G418 (Max effect)

Cc1cccc(C(F)(F)F)c1COc1ccc(N2CC(CO)OC2=O)cc1 (centres unmarked) [drawing 839]
Currents (% of 110 μM G418 (Max effect)) ([1]; RTM 1 uM, no eRF3 modulator, G418 10 uM): 76 % of 110 μM G418 (Max effect)

O=C1O[C@H](CO)CN1c1ccc(OCc2c(Cl)cccc2Cl)cc1 [drawing 842]
Currents (% of 110 μM G418 (Max effect)) [1, 6]: 323 % of 110 μM G418 (Max effect)

O=C1N[C@H](CO)CN1c1ccc(OCc2c(Cl)cccc2Cl)cn1 [drawing 832]
Currents (% of 110 μM G418 (Max effect)) [1, 5]: 83 % of 110 μM G418 (Max effect)

OCc1cn(-c2ncc(OCc3c(Cl)cccc3Cl)cn2)cn1 [drawing 838]
Currents (% of 110 μM G418 (Max effect)) ([1]; RTM 0.5 uM, eRF3 modulator (CC-90009) 1 uM, Paramomycin 2000 uM): 140 % of 110 μM G418 (Max effect)

OCc1ncn(-c2ncc(OCc3c(Cl)cccc3C(F)(F)F)cn2)n1 [drawing 835]
Currents (% of 110 μM G418 (Max effect)) [1, 5]: 60 % of 110 μM G418 (Max effect)

C[C@H](N)[C@H]1O[C@@H](OC2C(O)C(N)CC(N)C2OC2OC([C@@H](C)O)C(O)C(O)C2N)C(O)C1O (some centres unmarked) [ELX-02, reference compound]
Currents (% of 110 μM G418 (Max effect)) [2, 5]: 198 % of 110 μM G418 (Max effect) | Currents (% of 110 μM G418 (Max effect)) [1, 5]: 191 % of 110 μM G418 (Max effect)

Cc1cccc(C(F)(F)F)c1COc1ccc(-c2nc(CO)n[nH]2)cc1 [drawing 830]
Currents (% of 110 μM G418 (Max effect)) [1, 7]: 263 % of 110 μM G418 (Max effect)

O=C1O[C@H](CO)CN1c1ccc(OCc2c(Cl)cccc2Cl)cc1 [drawing 841]
Currents (% of 110 μM G418 (Max effect)) ([1]; RTM 5 uM, no eRF3 modulator, G418 10 uM): 54 % of 110 μM G418 (Max effect)

O=C1N[C@H](CO)CN1c1ccc(OCc2c(Cl)cccc2Cl)cn1 [drawing 833]
Currents (% of 110 μM G418 (Max effect)) [1, 7]: 293 % of 110 μM G418 (Max effect)

OCc1cn(-c2ncc(OCc3c(Cl)cccc3Cl)cn2)cn1 [drawing 823]
Currents (% of 110 μM G418 (Max effect)) ([1]; RTM 0.5 uM, no eRF3 modulator, ELX-02 100 uM): 50 % of 110 μM G418 (Max effect)

Cc1cccc(C(F)(F)F)c1COc1ccc(-c2nc(CO)n[nH]2)cc1 [drawing 829]
Currents (% of 110 μM G418 (Max effect)) [1, 5]: 83 % of 110 μM G418 (Max effect)

OCc1cn(-c2ncc(OCc3c(Cl)cccc3Cl)cn2)cn1 [drawing 824]
Currents (% of 110 μM G418 (Max effect)) ([1]; RTM 0.5 uM, eRF3 modulator (CC-90009) 1 uM, ELX-02 100 uM): 421 % of 110 μM G418 (Max effect)

OCc1cn(-c2ncc(OCc3c(Cl)cccc3Cl)cn2)cn1 [drawing 822]
Currents (% of 110 μM G418 (Max effect)) ([1]; RTM 0.5 uM, eRF3 modulator (CC-90009) 1 uM, G418 10 uM): 429 % of 110 μM G418 (Max effect)

CN[C@@H]1[C@@H](O)[C@@H](O[C@@H]2[C@@H](O)[C@H](O[C@H]3O[C@H]([C@@H](C)O)[C@@H](O)[C@H](O)[C@H]3N)[C@@H](N)C[C@H]2N)OC[C@]1(C)O [Example G418, G418, reference compound]
Currents (% of 110 μM G418 (Max effect)) [2, 8]: 110 % of 110 μM G418 (Max effect) and 95 % of 110 μM G418 (Max effect) | Currents (% of 110 μM G418 (Max effect)) [2, 9]: 130 % of 110 μM G418 (Max effect) and 139 % of 110 μM G418 (Max effect) | Currents (% of 110 μM G418 (Max effect)) [1, 8]: 130 % of 110 μM G418 (Max effect) | Currents (% of 110 μM G418 (Max effect)) [1, 9]: 102 % of 110 μM G418 (Max effect) | response (Nanoluc luminescence) relative to a maximally effective concentration of G418 [3]: approximately 10 % of the response observed with a maximally effective concentration of G418 (typically 125-250 μM)

OCc1ncn(-c2ncc(OCc3c(Cl)cccc3C(F)(F)F)cn2)n1 [drawing 834]
Currents (% of 110 μM G418 (Max effect)) ([1]; RTM 3 uM, no eRF3 modulator, ELX-02 100 uM): 111 % of 110 μM G418 (Max effect)

O=C1N[C@H](CO)CN1c1ccc(OCc2c(Cl)cccc2Cl)cn1 [drawing 831]
Currents (% of 110 μM G418 (Max effect)) [1, 4]: 79 % of 110 μM G418 (Max effect)

NC[C@@H]1O[C@H](O[C@H]2[C@@H](O)[C@H](O[C@@H]3[C@@H](O)[C@H](N)C[C@H](N)[C@H]3O[C@H]3O[C@H](CO)[C@@H](O)[C@H](O)[C@H]3N)O[C@@H]2CO)[C@H](N)[C@@H](O)[C@@H]1O [Paramomycin, paramomycin, reference compound]
Currents (% of 110 μM G418 (Max effect)) [2, 10]: 55 % of 110 μM G418 (Max effect) | Currents (% of 110 μM G418 (Max effect)) [1, 10]: 65 % of 110 μM G418 (Max effect)

OCc1ccn(-c2ncc(OCc3c(Cl)cccc3Cl)cn2)n1 [drawing 825]
Currents (% of 110 μM G418 (Max effect)) [1, 4]: 94 % of 110 μM G418 (Max effect)

OCc1ccn(-c2ncc(OCc3c(Cl)cccc3Cl)cn2)n1 [drawing 827]
Currents (% of 110 μM G418 (Max effect)) [1, 7]: 278 % of 110 μM G418 (Max effect)

OCc1cn(-c2ncc(OCc3c(Cl)cccc3Cl)cn2)cn1 [drawing 821]
Currents (% of 110 μM G418 (Max effect)) ([1]; RTM 0.5 uM, no eRF3 modulator, G418 10 uM): 78 % of 110 μM G418 (Max effect)

OCc1cn(-c2ncc(OCc3c(Cl)cccc3Cl)cn2)cn1 [drawing 837]
Currents (% of 110 μM G418 (Max effect)) ([1]; RTM 0.5 uM, no eRF3 modulator, Paramomycin 2000 uM): 5 % of 110 μM G418 (Max effect)

OCc1ncn(-c2ncc(OCc3c(Cl)cccc3C(F)(F)F)cn2)n1 [drawing 836]
Currents (% of 110 μM G418 (Max effect)) ([1]; RTM 3 uM, eRF3 modulator (CC-90009) 1 uM, ELX-02 100 uM): 263 % of 110 μM G418 (Max effect)

Cc1cccc(C(F)(F)F)c1COc1ccc(N2CC(CO)OC2=O)cc1 (centres unmarked) [drawing 840]
Currents (% of 110 μM G418 (Max effect)) ([1]; RTM 1 uM, eRF3 modulator (CC-90009) 1 uM, G418 10 uM): 290 % of 110 μM G418 (Max effect)

O=C1O[C@H](CO)CN1c1ccc(OCc2c(Cl)cccc2Cl)cc1 [drawing 818]
Currents (% of 110 μM G418 (Max effect)) [2, 6]: 314 % of 110 μM G418 (Max effect)
